Experimental data published in article PMC3657749 (Journal of medicinal chemistry, 2013).
One block for each compound: values may come before it.

Legend:
HDAC 1 = HDAC 1 (Homo sapiens, UniProt Q13547); assay: HDAC inhibition by SAMDI mass spectrometry, HDAC 1; assay type: biochemical; conditions: maximum tested concentration 10 μM
[1] = tested on: LNCaP (androgen dependent prostate cancer); assay: Cell viability assay; assay type: cell-based
[2] = tested on: T-cell leukemia cell line Jurkat; assay: Cell viability assay; assay type: cell-based
[3] = tested on: DU-145 (androgen independent prostate cancer); assay: Cell viability assay; assay type: cell-based; conditions: for DU-145 anti-proliferative activity (result in words): highest tested concentration 20 μM
HDAC 8 = biological target: T1, HDAC 8 (Homo sapiens, UniProt Q9BY41); assay: HDAC inhibition by SAMDI mass spectrometry, HDAC 8; assay type: biochemical; conditions: for HDAC 8 inhibition (result in words): SAMDI, maximum tested concentration 10 μM; for HDAC 8 inhibition relative to 7c: fold more active than 7c
T1 sequence (Q9BY41 1-377): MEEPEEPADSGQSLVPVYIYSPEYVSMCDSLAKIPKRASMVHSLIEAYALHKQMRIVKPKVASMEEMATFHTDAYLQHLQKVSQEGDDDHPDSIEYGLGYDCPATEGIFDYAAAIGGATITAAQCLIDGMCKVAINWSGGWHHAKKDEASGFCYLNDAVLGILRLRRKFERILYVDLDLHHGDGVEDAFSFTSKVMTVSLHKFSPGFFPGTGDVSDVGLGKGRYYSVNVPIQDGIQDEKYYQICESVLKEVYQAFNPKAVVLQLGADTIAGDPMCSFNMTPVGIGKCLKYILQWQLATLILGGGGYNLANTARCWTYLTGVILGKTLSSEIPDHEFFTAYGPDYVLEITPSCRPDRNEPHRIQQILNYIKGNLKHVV

HDAC 6 = biological target: T2, HDAC 6 (Homo sapiens, UniProt Q9UBN7); assay: HDAC inhibition by SAMDI mass spectrometry, HDAC 6; assay type: biochemical; conditions: maximum tested concentration 10 μM
T2 sequence (Q9UBN7 1-1215): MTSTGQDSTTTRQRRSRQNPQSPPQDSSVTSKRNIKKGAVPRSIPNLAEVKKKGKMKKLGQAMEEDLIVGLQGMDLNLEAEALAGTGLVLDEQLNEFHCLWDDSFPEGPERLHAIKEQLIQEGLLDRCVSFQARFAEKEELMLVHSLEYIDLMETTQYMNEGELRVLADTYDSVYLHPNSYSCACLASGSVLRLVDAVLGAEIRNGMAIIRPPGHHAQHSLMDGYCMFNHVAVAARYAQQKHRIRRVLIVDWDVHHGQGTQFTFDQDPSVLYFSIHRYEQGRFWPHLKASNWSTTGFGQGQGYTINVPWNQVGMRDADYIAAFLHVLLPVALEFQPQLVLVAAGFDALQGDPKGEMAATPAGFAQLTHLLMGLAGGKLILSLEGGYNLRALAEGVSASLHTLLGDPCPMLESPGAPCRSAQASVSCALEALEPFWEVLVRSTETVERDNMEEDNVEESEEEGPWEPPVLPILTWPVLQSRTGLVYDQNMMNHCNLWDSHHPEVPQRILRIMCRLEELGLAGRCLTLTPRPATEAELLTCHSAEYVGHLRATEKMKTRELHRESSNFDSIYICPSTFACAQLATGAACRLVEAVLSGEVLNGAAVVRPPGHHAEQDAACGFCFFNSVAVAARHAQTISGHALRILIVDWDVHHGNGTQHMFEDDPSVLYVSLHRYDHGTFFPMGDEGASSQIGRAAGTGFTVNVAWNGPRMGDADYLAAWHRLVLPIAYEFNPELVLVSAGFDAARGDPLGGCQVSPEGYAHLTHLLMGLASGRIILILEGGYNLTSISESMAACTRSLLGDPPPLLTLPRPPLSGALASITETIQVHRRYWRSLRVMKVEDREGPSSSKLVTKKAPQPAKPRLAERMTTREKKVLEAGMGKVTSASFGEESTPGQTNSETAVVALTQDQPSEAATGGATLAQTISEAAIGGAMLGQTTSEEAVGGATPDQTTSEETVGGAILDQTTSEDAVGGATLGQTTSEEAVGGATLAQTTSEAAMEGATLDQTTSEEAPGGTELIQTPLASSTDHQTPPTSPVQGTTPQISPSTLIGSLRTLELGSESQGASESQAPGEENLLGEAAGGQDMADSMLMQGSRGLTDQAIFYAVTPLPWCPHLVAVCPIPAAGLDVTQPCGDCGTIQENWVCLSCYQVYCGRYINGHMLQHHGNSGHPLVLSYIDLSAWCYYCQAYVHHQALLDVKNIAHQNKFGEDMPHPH

[4] = tested on: Jurkat J.gamma1 (mutant Jurkat cell line, no detectable PLCγ1 activity); assay: Cell viability assay; assay type: cell-based; conditions: for IC50: Homo sapiens, Jurkat, 72 h, read-out: Cellular IC50(μM) Jurkat J.gammal
[5] = tested on: tubulin acetylation (HDAC6 inhibition) in LNCaP cell line; assay: Western blot analysis of tubulin acetylation; assay type: cell-based; conditions: LNCaP cells, 4 hours, at IC50 concentration and at 20 μM
Jurkat J.gamma1 = conditions: mutant Jurkat cell line without detectable PLCγ1 activity; cited from earlier work

Sequence of HDAC 1 (Q13547 whole entry): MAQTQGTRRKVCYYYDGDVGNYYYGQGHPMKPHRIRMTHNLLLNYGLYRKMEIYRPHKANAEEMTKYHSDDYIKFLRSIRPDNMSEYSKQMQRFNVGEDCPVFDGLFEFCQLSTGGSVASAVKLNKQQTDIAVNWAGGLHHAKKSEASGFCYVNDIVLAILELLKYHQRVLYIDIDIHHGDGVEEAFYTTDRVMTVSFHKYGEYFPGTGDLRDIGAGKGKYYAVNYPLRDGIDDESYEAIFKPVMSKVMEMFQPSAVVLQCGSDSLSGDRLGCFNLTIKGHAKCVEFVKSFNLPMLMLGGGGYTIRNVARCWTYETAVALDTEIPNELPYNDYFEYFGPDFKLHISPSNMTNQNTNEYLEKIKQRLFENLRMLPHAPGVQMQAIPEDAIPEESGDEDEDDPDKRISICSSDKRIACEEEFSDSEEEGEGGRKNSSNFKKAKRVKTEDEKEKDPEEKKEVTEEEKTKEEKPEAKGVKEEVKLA

HDAC 1 inhibition (result in words) (HDAC 1): no inhibition | IC50 ([1]; Homo sapiens, LNCaP, read-out: Cellular IC50(μM) LNCaP): > 20 µM | IC50 ([2]; Homo sapiens, Jurkat, 72 h, read-out: Cellular IC50(μM) Jurkat): > 20 µM | IC50 ([3]; Homo sapiens, DU-145, read-out: Cellular IC50(μM) DU-145): > 20 µM
Structure (SMILES): Oc1ccc[nH]c1=S [Compound 3-HPT, 3-hydroxypyridin-2-thione]
LNCaP anti-proliferative activity (result in words) [1]: inactive | Jurkat anti-proliferative activity (result in words) [2]: inactive | DU-145 anti-proliferative activity (result in words) [3]: inactive

HDAC 1 inhibition (result in words) (HDAC 1): failed to inhibit | HDAC 8 inhibition (result in words) (HDAC 8): failed to inhibit | HDAC 6 inhibition (result in words) (HDAC 6): failed to inhibit
Structure (SMILES): Cn1cccc(O)c1=O [Compound 5a, 1-Methyl-3-hydroxypyridin-2-one]

HDAC 1 inhibition (result in words) (HDAC 1): failed to inhibit | HDAC 8 inhibition (result in words) (HDAC 8): failed to inhibit | HDAC 6 inhibition (result in words) (HDAC 6): failed to inhibit
Structure (SMILES): O=c1c(O)cccn1Cc1ccccc1 [Compound 5b, 1-Benzyl-3-hydroxypyridin-2-one]

HDAC 1 inhibition (result in words) (HDAC 1): failed to inhibit | HDAC 8 inhibition (result in words) (HDAC 8): failed to inhibit | HDAC 6 inhibition (result in words) (HDAC 6): failed to inhibit
Structure (SMILES): O=c1c(O)cccn1Cc1ccc(-c2ccccc2)cc1 [Compound 5c, 1-(1,1'-Biphenylmethyl)-3-hydroxypyridin-2-one]

Structure (SMILES): Oc1cccn(Cc2ccccc2)c1=S [Compound 7b, 1-Benzyl-3-hydroxypyridin-2-thione]
HDAC 1 inhibition (result in words) (HDAC 1): neither 7b nor 7c possess any measurable activity

Structure (SMILES): Oc1cccn(Cc2ccc(-c3ccccc3)cc2)c1=S [Compound 7c, 1-(1,1'-Biphenylmethyl)-3-hydroxypyridin-2-thione]
HDAC 1 inhibition (result in words) (HDAC 1): neither 7b nor 7c possess any measurable activity

HDAC 8 inhibition relative to 7c (HDAC 8): about 2 fold
Structure (SMILES): N#Cc1ccc(-c2ccc(Cn3cccc(O)c3=S)cc2)cc1 [Compound 12a, 1-(4-Cyano-(1,1'-biphenylmethyl))-3-hydroxyoxypyridin-2-thione]

HDAC 6 inhibition (result in words) (HDAC 6): abrogation of HDAC 6 inhibition
Structure (SMILES): N#Cc1cccc(-c2ccc(Cn3cccc(O)c3=S)cc2)c1 [Compound 12b, 1-(3-Cyano-(1,1'-biphenylmethyl))-3-hydroxyoxypyridin-2-thione]

Structure (SMILES): Cc1ccccc1-c1ccc(Cn2cccc(O)c2=S)cc1 [Compound 12f, 1-(2-Methyl-(1,1'-biphenylmethyl))-3-hydroxyoxypyridin-2-thione]
Jurkat J.gamma1 anti-proliferative activity (result in words) [4]: non-cytotoxic | IC50 [4]: > 20 µM | DU-145 anti-proliferative activity (result in words) [3]: weak activity | tubulin acetylation (Western blot) [5]: increase in tubulin acetylation

Structure (SMILES): CN(C)c1ccc(-c2ccc(Cn3cccc(O)c3=S)cc2)cc1 [Compound 12g, 1-(4-Dimethylamino-(1,1'-biphenylmethyl))-3-hydroxyoxypyridin-2-thione]
HDAC 8 inhibition relative to 7c (HDAC 8): about 2 fold | Jurkat J.gamma1 anti-proliferative activity (result in words) [4]: devoid of anti-proliferative activity | IC50 [4]: > 20 µM | HDAC 6 inhibition (result in words) (HDAC 6): loss of HDAC 6 inhibition

HDAC 8 inhibition (result in words) (HDAC 8): loss of HDAC 8 inhibition
Structure (SMILES): CN(C)c1ccc(-c2ccc(Cn3cccc(O)c3=S)cc2)cn1 [Compound 12h]

HDAC 1 inhibition (result in words) (HDAC 1): inactive | HDAC 8 inhibition (result in words) (HDAC 8): inactive | HDAC 6 inhibition (result in words) (HDAC 6): inactive
Structure (SMILES): O=c1c(O)cccn1Cc1cn(-c2ccccc2)nn1 [Compound 15a, 1-Phenyltriazolylmethyl-3-hydroxypyridin-2-one]

Structure (SMILES): Oc1cccn(Cc2cn(-c3ccccc3)nn2)c1=S [Compound 17a, 1-Phenyltriazolylmethyl-3-hydroxypyridin-2-thione]
HDAC 8 inhibition relative to 7c (HDAC 8): 2 to 3 fold | Jurkat J.gamma1 anti-proliferative activity (result in words) [4]: devoid of anti-proliferative activity | IC50 [4]: > 20 µM | HDAC 6 inhibition (result in words) (HDAC 6): only marginally inhibitory

Structure (SMILES): COc1ccc(Cn2ccc3ccc(C(=O)NO)cc32)cc1 [PCI-34051]
apoptosis induction in Jurkat J.gamma1 (Jurkat J.gamma1): lost its ability to induce apoptosis

Structure (SMILES): O=C(CCCCCCC(=O)Nc1ccccc1)NO [SAHA, suberoylanilide hydroxamic acid, reference compound]
Jurkat J.gamma1 anti-proliferative activity (result in words) [4]: non-cytotoxic | tubulin acetylation (Western blot) [5]: concentration dependent tubulin hyperacetylation
